Source: patent US8614290B2, “Cancer imaging and treatment” (Technische Universitat Munchen, priority 2007, dated 2013)
Where “and” joins values, the source holds several entries; their conditions need not be identical. Identical values can stand only once. Like-named read-outs stand apart in the source and are kept apart here. Values belong to the molecule of their own block, whether it stands above or below them. Numbered stars: 1 amine (or outer) side, 2 acyl side, 3 side chain; on linkers, the order of the positions; unused ones are H or OH. Bridge positions count the residues as written; N and C are the ends. Square brackets hold non-standard residues; d marks the D form. Peptide text beside a SMILES is read from it. I, II: the chains in the order shown. 2Nal = N[C@@H](Cc1ccc2ccccc2c1)C(=O)O; Adipoyl = O=C(CCCCC(=O)[*:2])[*:1]; dNMeOrn = CN[C@H](CCCN)C(=O)O

How the values were obtained:
human CXCR4 [1] = biological target: T1, human CXCR4 (Homo sapiens, UniProt P61073); experiment: Receptor functionality: FACS staining of surface CXCR4 after pre-incubation with SDF-1α; format: cell-based; parameters: expressed in transfected cells; host or cells: murine CMS5 fibrosarcoma cells, retroviral vector pBulletCXCR4-IRES-eGFP
T1 sequence (P61073 whole entry): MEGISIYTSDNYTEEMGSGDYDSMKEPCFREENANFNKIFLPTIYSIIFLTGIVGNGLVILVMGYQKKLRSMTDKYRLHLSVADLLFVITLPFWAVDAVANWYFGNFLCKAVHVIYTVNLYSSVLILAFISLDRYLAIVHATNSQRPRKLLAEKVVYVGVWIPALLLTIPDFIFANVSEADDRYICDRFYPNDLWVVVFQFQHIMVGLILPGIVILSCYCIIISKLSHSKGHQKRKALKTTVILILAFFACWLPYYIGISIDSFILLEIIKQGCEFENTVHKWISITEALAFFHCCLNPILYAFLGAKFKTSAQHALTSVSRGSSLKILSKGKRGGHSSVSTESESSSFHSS
Excerpt: CXCR-4 staining was plotted against EGFP fluorescence (FL1).

human CXCR4 [2] = biological target: T1, human CXCR4; experiment: Radioligand (saturation) binding of 125I-CPCR4 on Jurkat and CMS5/CXCR4 cells; parameters: Jurkat cells that endogenously express the CXCR4 receptor; endogenous in cells; host or cells: Jurkat cells
Procedure: For receptor binding assays cells were resuspended in PBS/0.2% BSA. A total of 200 μl of the suspension containing 400,000 Jurkat cells were incubated with 25 μl of the tracer solution (containing 3.1 kBq, approx. 0.1 nM) and 25 μl of the diluent or the competitor at different concentrations. […] Nonspecific binding was determined in the presence of 1 μM cold cyclo(D-Tyr^1[^127I]-Arg^2-Arg^3-Nal^4-Gly^5). After shaking for 2 h at room temperature, the incubation was terminated by centrifugation at 1300 rpm for 5 min. Cell pellets were washed once with cold PBS followed by a second centrifugation step. Cell bound radioactivity was determined by using a gamma counter. Experiments were repeated 2-3 times in triplicates. IC50 values of the compounds were calculated by nonlinear regression using GraphPad Prism (GraphPad Prism 4.0 Software, Inc., San Diego, Calif., USA). Each data point is the average of three determinations.
Whereas for Jurkat cells the Bmax value was more dependent on origin and varies stronger with culture conditions, the number of binding sites (Bmax) on CMS5/CXCR4 cells was constant and better reproducible (23±6 fmol receptor protein).

CMS5/CXCR4 tumours = experiment: Biodistribution of 125I-CPCR4 in CMS5 and CMS5/CXCR4 tumour bearing nude mice; format: in vivo; conditions: for accumulation in CMS5/CXCR4 tumours / accumulation in parental CMS5 (CXCR4 negative control) tumours: i.v.
Procedure: For animal experiments parental CMS5 cells and transduced CMS5/CXCR4 cells were injected subcutaneously in female Swiss nu/nu mice (Charles River, France). Therefore for each mouse 1.5×10^6 CMS5 cells and 2×10^6 CMS5/CXCR4 cells were resuspended in 75 μl PBS, respectively and mixed with the same volume Matrigel-Matrix HC (BD Biosciences, Heidelberg, Germany) according to the manufacturer's protocol. Subsequently cell suspension was inoculated at each shoulder, respectively. After 14-16 days of tumour growth mice were used for imaging and biodistribution purposes. All animal experiments were approved by the local authorities and are in compliance with the institutions guidelines.
The animals were sacrificed and dissected 30, 60 and 120 min after tracer injection. Organs of interest were removed and the radioactivity was measured in weighted tissue samples using the 1480 Wizard3 gamma counter from Wallac (Turku, Finland). Results are expressed as percent injected dose per gram tissue weight (% ID/g). Each value represents the mean of four to six animals.

human CXCR4 [3] = biological target: T1, human CXCR4; experiment: Receptor internalization: tracer release after acidic buffer wash; format: cell-based; parameters: Jurkat cells that endogenously express the CXCR4 receptor; endogenous in cells; host or cells: Jurkat cells; conditions: after two short washing steps with acidic buffer (pH5.0)
Excerpt: Thereafter the tracer was mostly releasable from the receptor (>80%).

human CXCR4 [4] = biological target: T1, human CXCR4; experiment: Competitive receptor binding assay on Jurkat cells with 125I-CPCR4 as tracer; parameters: Jurkat cells that endogenously express the CXCR4 receptor; endogenous in cells; host or cells: Jurkat cells
Procedure: For receptor binding assays cells were resuspended in PBS/0.2% BSA. A total of 200 μl of the suspension containing 400,000 Jurkat cells were incubated with 25 μl of the tracer solution (containing 3.1 kBq, approx. 0.1 nM) and 25 μl of the diluent or the competitor at different concentrations. […] After shaking for 2 h at room temperature, the incubation was terminated by centrifugation at 1300 rpm for 5 min. Cell pellets were washed once with cold PBS followed by a second centrifugation step. Cell bound radioactivity was determined by using a gamma counter. Experiments were repeated 2-3 times in triplicates. IC50 values of the compounds were calculated by nonlinear regression using GraphPad Prism (GraphPad Prism 4.0 Software, Inc., San Diego, Calif., USA). Each data point is the average of three determinations.

[5] = 60 min (1 h) post injection, listed as radiolabeled CPCR4
[6] = Table 10, dimers and monomers, read-out: IC50

Molecule: cyclo(D-Tyr^1[^125I]-Arg^2-Arg^3-Nal^4-Gly^5) [^125I-CPCR4]
specific binding (human CXCR4 [2]): > 90%
accumulation in intestine (CMS5/CXCR4 tumours; 30 min post injection): 16.0 (±4.7) % ID/g
accumulation in liver (CMS5/CXCR4 tumours; 30 min post injection): 27.7 (±4.9) % ID/g
accumulation in CMS5/CXCR4 tumours (CMS5/CXCR4 tumours; 30 min post injection): 4.7 (±1.3) % ID/g
accumulation in kidneys (CMS5/CXCR4 tumours; 60 min (1 h) post injection): 12.2 (±2.3) % ID/g
accumulation in CMS5/CXCR4 tumours (CMS5/CXCR4 tumours; 60 min (1 h) post injection): 5.5 (±1.5) % ID/g and 5.5 % ID/g
accumulation in parental CMS5 (CXCR4 negative control) tumours (CMS5/CXCR4 tumours; 60 min (1 h) post injection): 0.6 (±0.2) % ID/g
accumulation in CMS5/CXCR4 tumours (CMS5/CXCR4 tumours; [5]): 5.5±1.5 % ID/g
accumulation in parental CMS5 (CXCR4 negative control) tumours (CMS5/CXCR4 tumours; [5]): 0.6±0.2 % ID/g
accumulation in kidneys (CMS5/CXCR4 tumours; [5]): 12.2±2.3 % ID/g
tracer uptake in intestine (CMS5/CXCR4 tumours; 1 h post injection): 17.2±2.9 % ID/g
tracer uptake in liver (CMS5/CXCR4 tumours; 1 h post injection): 19.5±2.8 % ID/g
background accumulation (CMS5/CXCR4 tumours; 1 h post injection, other organs): < 1.0 % ID/g
accumulation in intestine (CMS5/CXCR4 tumours; 120 min post injection): 19.2 (±4.5) % ID/g
accumulation in kidneys (CMS5/CXCR4 tumours; 120 min post injection): 8.2 (±1.1) % ID/g
accumulation in liver (CMS5/CXCR4 tumours; 120 min post injection): 15.0 (±1.8) % ID/g
accumulation in CMS5/CXCR4 tumours (CMS5/CXCR4 tumours; 120 min post injection): 3.8 (±1.4) % ID/g
increased accumulation in CXCR4+ tumors compared to control tumors (CMS5/CXCR4 tumours; preliminary animal studies): around 10 times
tracer releasable from the receptor (human CXCR4 [3]): > 80%

Molecule: CN1C(=O)[C@@H](Cc2ccc(O)cc2)NC(=O)CNC(=O)[C@H](Cc2ccc3ccccc3c2)NC(=O)[C@H](CCCN=C(N)N)NC(=O)[C@H]1CCCNC(=O)CNC(=O)CC(CC(=O)NCC(=O)NCCC[C@@H]1C(=O)N[C@@H](CCCN=C(N)N)C(=O)N[C@@H](Cc2ccc3ccccc3c2)C(=O)NCC(=O)N[C@H](Cc2ccc(O)cc2)C(=O)N1C)NC(=O)CCCCCNC(=O)CN1CCN(CC(=O)O)CCN(CC(=O)O)CCN(CC(=O)O)CC1 (single isomer, unassigned) [NMe-D-Orn + Gly DOTAAhxbetaAsp]
IC50 (human CXCR4 [4]; [6]): 12.3 nM

Molecule: CN1C(=O)[C@H](CCCNC(=N)N)NC(=O)[C@@H](Cc2ccc(O)cc2)NC(=O)CNC(=O)[C@H](Cc2ccc3ccccc3c2)NC(=O)[C@@H]1CCCNC(=N)N [OD3, cyc[D-Tyr-Arg-(Me)Arg-Nal-Gly]]
IC50 (human CXCR4 [4]; Table 1, Nα-monomethylated cyclic pentapeptides, read-out: IC50): 31 nM

Molecule: N=C(N)NCCC[C@@H]1NC(=O)[C@H](Cc2c[nH]cn2)NC(=O)[C@@H](Cc2ccc(O)cc2)NC(=O)CNC(=O)[C@H](Cc2ccc3ccccc3c2)NC1=O [cyc[D-Tyr-His-Arg-Nal-Gly]] (HELM PEPTIDE1{[O=C([C@H](Cc1ccc2ccccc2c1)N[*:1])[*:2]].G.[dY].H.R}$PEPTIDE1,PEPTIDE1,1:R1-5:R2$$$V2.0)
IC50 (human CXCR4 [4]; Table 5, D-Orn derivatives, His, Phe, read-out: IC50): 30 nM

Molecule: N=C(N)NCCC[C@@H]1NC(=O)[C@H](CCCNCc2cccc3ccccc23)NC(=O)[C@@H](Cc2ccc(O)cc2)NC(=O)CNC(=O)[C@H](Cc2ccc3ccccc3c2)NC1=O [cyc[D-Tyr-Orn(N1)-Arg-Nal-Gly]] (HELM PEPTIDE1{[dY].[O=C([C@H](CCCNCc1cccc2ccccc12)N[*:1])[*:2]].R.[O=C([C@H](Cc1ccc2ccccc2c1)N[*:1])[*:2]].G}$PEPTIDE1,PEPTIDE1,1:R1-5:R2$$$V2.0)
IC50 (human CXCR4 [4]; Table 4, Orn-Nδ and/or Orn-Nα-modified pentapeptides, read-out: IC50): 40 ± 3 nM

More lines, now with the values ahead:

mean fluorescence intensity, CMS5/CXCR4 cells (human CXCR4 [1]; SDF-1α treated, mock treated 209.0): 80.5
CMS5/CXCR4 cells stained positive for CXCR4 (human CXCR4 [1]; after pre-incubation with human SDF-1α 100 nM, 1 hr 37° C., control-treated […]): 54.7%
Molecule: SDF-1α

IC50 (human CXCR4 [4]; read-out: IC50 (affinity)): 11.1 ± 3.4 nM
Molecule: CN1C(=O)[C@@H](Cc2ccc(O)cc2)NC(=O)CNC(=O)[C@H](Cc2ccc3ccccc3c2)NC(=O)[C@H](CCCNC(=N)N)NC(=O)[C@H]1CCCNC(=O)CCCCCCCCCCCC(=O)NCCC[C@@H]1C(=O)N[C@@H](CCCNC(=N)N)C(=O)N[C@@H](Cc2ccc3ccccc3c2)C(=O)NCC(=O)N[C@H](Cc2ccc(O)cc2)C(=O)N1C [NMe-D-Orn n = 11]

IC50 (human CXCR4 [4]; [6]): 3.65 nM
IC50 (human CXCR4 [4]; read-out: IC50 (affinity)): 4.42 nM
Molecule: CN1C(=O)[C@@H](Cc2ccc(O)cc2)NC(=O)CNC(=O)[C@H](Cc2ccc3ccccc3c2)NC(=O)[C@H](CCCN=C(N)N)NC(=O)[C@H]1CCCNC(=O)CCCCC(=O)NCCC[C@@H]1C(=O)N[C@@H](CCCN=C(N)N)C(=O)N[C@@H](Cc2ccc3ccccc3c2)C(=O)NCC(=O)N[C@H](Cc2ccc(O)cc2)C(=O)N1C [NMe-D-Orn n = 4] (I: cyclo([2Nal]G[dY][dNMeOrn]R) / II: cyclo([2Nal]G[dY][dNMeOrn]R); linker I:4-II:4 via Adipoyl)
